Test results reported in patent US9095136B2, “2-IODO imidazole-derivatives” (BAYER INTELLECTUAL PROPERTY GMBH, priority 2011, dated 2015).
Marks after values point to notes of the source that are not given here.

Assays:
Septoria tritici [1] = assay: Example I: Septoria tritici test (wheat)/protective; type: in vivo; conditions: protective, 500 ppm, evaluation 21 days after inoculation
Protocol: (§1) Solvent: 49 parts by weight of N,N-dimethylacetamide Emulsifier: 1 part by weight of alkylaryl polyglycol ether To produce a suitable preparation of active compound, 1 part by weight of active compound is mixed with the stated amounts of solvent and emulsifier, and the concentrate is diluted with water to the desired concentration. To test for protective activity, young plants are sprayed with the preparation of active compound at the stated application rate. After the spray coating has dried on, the plants are sprayed with a spore suspension of Septoria tritici.

Venturia inaequalis = assay: Example D: Venturia test (apple)/protective; type: in vivo; conditions: protective, 100 ppm, evaluation 10 days after inoculation
Protocol: (§2) Solvent: 24.5 parts by weight of acetone • 24.5 parts by weight of dimethylacetamide Emulsifier: 1 part by weight of alkylaryl polyglycol ether To produce a suitable preparation of active compound, 1 part by weight of active compound is mixed with the stated amounts of solvent and emulsifier, and the concentrate is diluted with water to the desired concentration. To test for protective activity, young plants are sprayed with the preparation of active compound at the stated application rate. […] The plants are then placed in a greenhouse at about 21° C. and a relative atmospheric humidity of about 90%.

Uromyces appendiculatus [2] = assay: Example W: preventative in vivo test with Uromyces appendiculatus (bean rust); conditions: 500 ppm, evaluation 10 days after inoculation
Protocol: The active compounds tested are prepared by homogenization in a mixture of acetone/Tween/DMSO and then diluted with water to the desired active compound concentration. Bean plants (cultivar “Saxa”), sown in a 50/50 peat/pozzolana soil substrate and cultivated at 24° C., are treated at the 2-leaf stage (height 9 cm) by spraying with the active compound, prepared as above. As a control, plants are treated with the mixture of acetone/Tween/DMSO/water without the active compound. After 24 hours, the plants are inoculated by spraying the leaves with an aqueous suspension of Uromyces appendiculatus spores.

Puccinia recondita [3] = assay: Example T: preventative in vivo test with Puccinia recondita (brown rust on wheat); conditions: 500 ppm, evaluation 10 days after inoculation
Protocol: The active compounds tested are prepared by homogenization in a mixture of acetone/Tween/DMSO and then diluted with water to the desired active compound concentration. Wheat plants (cultivar “Scipion”), sown in a 50/50 peat/pozzolana soil substrate and cultivated at 22° C. (12 h)/20° C. (12 h), are treated at the 1-leaf stage (height 10 cm) by spraying with the active compound, prepared as above. As a control, plants are treated with the mixture of acetone/Tween/DMSO/water without the active compound. After 24 hours, the plants are inoculated by spraying the leaves with an aqueous suspension of Puccinia recondita spores.

[4] = test system: Blumeria graminis f.sp. hordei; assay: Example G: Blumeria graminis test (barley)/protective; type: in vivo; conditions: protective, 500 ppm, evaluation 7 days after inoculation
Protocol: Solvent: 49 parts by weight of N,N-dimethylacetamide Emulsifier: 1 part by weight of alkylaryl polyglycol ether To produce a suitable preparation of active compound, 1 part by weight of active compound is mixed with the stated amounts of solvent and emulsifier, and the concentrate is diluted with water to the desired concentration. To test for protective activity, young plants are sprayed with the preparation of active compound at the stated application rate. After the spray coating has dried on, the plants are dusted with spores of Blumeria graminis f.sp. hordei.

Septoria tritici [5] = assay: Example U: preventative in vivo test with Septoria tritici (leaf blotch disease on wheat); conditions: 500 ppm, evaluation 21 to 28 days after inoculation
Protocol: The active compounds tested are prepared by homogenization in a mixture of acetone/Tween/DMSO and then diluted with water to the desired active compound concentration. Wheat plants (cultivar “Scipion”), sown in a 50/50 peat/pozzolana soil substrate and cultivated at 22° C. (12 h)/20° C. (12 h), are treated at the 1-leaf stage (height 10 cm) by spraying with the active compound, prepared as above. As a control, plants are treated with the mixture of acetone/Tween/DMSO/water without the active compound. After 24 hours, the plants are inoculated by spraying the leaves with an aqueous suspension of cryogenically preserved Septoria tritici spores.

Sphaerotheca fuliginea = assay: Example V: preventative in vivo test with Sphaerotheca fuliginea (powdery mildew on cucumber); conditions: 500 ppm, evaluation 12 days after inoculation
Protocol: The active compounds tested are prepared by homogenization in a mixture of acetone/Tween/DMSO and then diluted with water to the desired active compound concentration. Cucumber plants (cultivar “Vert petit de Paris”), sown in a 50/50 peat/pozzolana soil substrate and cultivated at 24° C., are treated at the Z11 cotyledon stage by spraying with the active compound, prepared as above. As a control, plants are treated with the mixture of acetone/Tween/DMSO/water without the active compound. After 24 hours, the plants are inoculated by spraying the leaves with an aqueous suspension of Sphaerotheca fuliginea spores. The inoculated cucumber plants are incubated at about 20° C./25° C. and a relative atmospheric humidity of 60/70%.

Puccinia triticina = assay: Example L: Puccinia triticina test (wheat)/protective; type: in vivo; conditions: protective, 500 ppm, evaluation 8 days after inoculation
Protocol: as §1, with “sprayed with spores with a spore” for “sprayed with a spore”, “suspension of Puccinia triticina.” for “suspension of Septoria tritici.”

Botrytis cinerea = assay: Example P: preventative in vivo test with Botrytis cinerea (grey mould); conditions: cucumber, 500 ppm, evaluation 4-5 days after inoculation
Protocol: The active compounds tested are prepared by homogenization in a mixture of acetone/Tween/DMSO and then diluted with water to the desired active compound concentration. Cucumber plants (cultivar “Vert petit de Paris”), sown in a 50/50 peat/pozzolana soil substrate and cultivated at 24° C., are treated at the Z11 cotyledon stage by spraying with the active compound, prepared as above. As a control, plants are treated with the mixture of acetone/Tween/DMSO/water without the active compound. After 24 hours, the plants are inoculated by spraying the cotyledons with an aqueous suspension of cryogenically preserved Botrytis cinerea spores.

[6] = log P by HPLC on reversed-phase columns (EEC directive 79/831 Annex V.A8); type: physicochemical; conditions: for logP: pH 2.7
Protocol: The log P values were measured according to EEC directive 79/831 Annex V.A8 by HPLC (High Performance Liquid Chromatography) on reversed-phase columns, using the methods below: […] Calibration was carried out using unbranched alkan-2-ones (having from 3 to 16 carbon atoms) with known log P values (the log P values were determined by the retention times using linear interpolation between two successive alkanones). The lambda maX values were determined in the maxima of the chromatographic signals using the UV spectra from 200 nm to 400 nm.

Phakopsora pachyrhizi = assay: Example F: Phakopsora test (soya beans)/protective; type: in vivo; conditions: protective, 100 ppm, evaluation 7 days after inoculation
Protocol: Solvents: 24.5 parts by weight of acetone • 24.5 parts by weight of dimethylacetamide Emulsifier: 1 part by weight of alkylaryl polyglycol ether To produce a suitable preparation of active compound, 1 part by weight of active compound is mixed with the stated amounts of solvent and emulsifier, and the concentrate is diluted with water to the desired concentration. To test for protective activity, young plants are sprayed with the preparation of active compound at the stated application rate.

Pyricularia oryzae [7] = type: in vivo; conditions: rice, protective, 500 ppm, evaluation 7 days after inoculation
Puccinia recondita [8] = assay: Example X: Puccinia test (wheat)/protective, comparison; type: in vivo; conditions: protective, application rate 500 ppm, evaluation 7-9 days after inoculation
Protocol: Solvent: 49 parts by weight of N,N-dimethylformamide Emulsifier: 1 part by weight of alkylaryl polyglycol ether To produce a suitable preparation of active compound, 1 part by weight of active compound is mixed with the stated amounts of solvent and emulsifier, and the concentrate is diluted with water to the desired concentration. To test for protective activity, young plants are sprayed with the preparation of active compound at the stated application rate. One day after this treatment, the plants are inoculated with an aqueous spore suspension of Puccinia recondita.

Uromyces appendiculatus [9] = assay: Example E: Uromyces test (bean)/protective; type: in vivo; conditions: protective, 10 ppm, evaluation 10 days after inoculation
Protocol: as §2, with “Solvents:” for “Solvent:”

Alternaria brassicae = assay: Example O: preventative in vivo test with Alternaria brassicae (leaf spot on radish); conditions: 500 ppm, evaluation 5 days after inoculation
Protocol: The active compounds tested are prepared by homogenization in a mixture of acetone/Tween/DMSO and then diluted with water to the desired active compound concentration. Radish plants (cultivar “Pernod Clair”), sown in a 50/50 peat/pozzolana soil substrate and cultivated at 17° C., are treated at the 2-leaf stage by spraying with the active compound, prepared as above. As a control, plants are treated with the mixture of acetone/Tween/DMSO/water without the active compound. After 24 hours, the plants are inoculated by spraying the leaves with an aqueous suspension of Alternaria brassicae spores.

Pyricularia oryzae [10] = type: in vivo; conditions: rice, preventative, 500 ppm, evaluation 6 days after inoculation
Pyrenophora teres = assay: Example R: preventative in vivo test with Pyrenophora teres (net blotch on barley); conditions: 500 ppm, evaluation 12 days after inoculation
Protocol: The active compounds tested are prepared by homogenization in a mixture of acetone/Tween/DMSO and then diluted with water to the desired active compound concentration. Barley plants (cultivar “Plaisant”), sown in a 50/50 peat/pozzolana soil substrate and cultivated at 22° C. (12 h)/20° C. (12 h), are treated at the 1-leaf stage (height 10 cm) by spraying with the active compound, prepared as above. As a control, plants are treated with the mixture of acetone/Tween/DMSO/water without the active compound. After 24 hours, the plants are inoculated by spraying the leaves with an aqueous suspension of Pyrenophora teres spores.

Uromyces appendiculatus [11] = assay: Example Y: Uromyces test (beans)/protective, comparison; type: in vivo; conditions: protective, application rate 10 ppm, evaluation 10 days after inoculation
Protocol: as §2, with “Solvents:” for “Solvent:”

Septoria tritici [12] = assay: Example Z: Septoria tritici test (wheat)/protective, comparison; type: in vivo; conditions: protective, application rate 250 ppm, evaluation 21 days after inoculation
Protocol: as §1, with “active compound or active compound combination is mixed” for “active compound is mixed”, “active compound or active compound combination at the” for “active compound at the”

Fc1ccc([C@]2(Cn3ccnc3I)O[C@H]2c2ccccc2Cl)c(F)c1 (relative stereo) [Example 14, rel-1-{[(2R,3S)-3-(2-chlorophenyl)-2-(2,4-difluorophenyl)oxiran-2-yl]methyl}-2-iodo-1H-imidazole]
Eff. % (Septoria tritici [1]): 100%
Eff. % (Venturia inaequalis): 100%
Efficacy % (Uromyces appendiculatus [2]): 100%
Efficacy % (Puccinia recondita [3]): 93%
Eff. % [4]: 90%
Efficacy % (Septoria tritici [5]): 100%
Efficacy % (Sphaerotheca fuliginea): 100%
Eff. % (Puccinia triticina): 100%
Efficacy % (Botrytis cinerea): 97%
chromatographic logP ([6]; pH 2.7, log P(HCOOH)): 3.23
chromatographic logP ([6]; pH 2.7, logP): 3.23
Eff. % (Phakopsora pachyrhizi): 100%

CC(C)(C)C(O)(CCc1ccc(Cl)cc1)Cn1ccnc1I (stereo not shown) [Example 4]
Eff. % (Pyricularia oryzae [7]): 80%
Efficacy in % (Puccinia recondita [8]): 95%

Fc1ccc(C2(Cn3ccnc3I)OC2c2ccccc2Cl)cc1 (stereo not shown) [Example 8]
Eff. % (Venturia inaequalis): 100%
Eff. % (Uromyces appendiculatus [9]): 100%
Efficacy % (Uromyces appendiculatus [2]): 100%
Efficacy % (Puccinia recondita [3]): 97%
Efficacy % (Alternaria brassicae): 88%
Efficacy % (Septoria tritici [5]): 100%
Efficacy % (Sphaerotheca fuliginea): 100%
Efficacy % (Pyricularia oryzae [10]): 75%
Efficacy % (Pyrenophora teres): 79%
logP [6]: 3.09^[a]
Eff. % (Phakopsora pachyrhizi): 99%

Fc1cc(Cl)ccc1C1(Cn2ccnc2I)OC1c1ccccc1Cl (stereo not shown) [Example 11]
Efficacy % (Uromyces appendiculatus [2]): 97%
Efficacy % (Puccinia recondita [3]): 93%
Efficacy % (Septoria tritici [5]): 100%
Efficacy % (Sphaerotheca fuliginea): 100%
Efficacy % (Botrytis cinerea): 92%
logP [6]: 3.7^[a]

OC(Cc1ccc(F)cc1)(Cn1ccnc1)C1(Cl)CC1 (stereo not shown) [drawing 19, reference compound]
Efficacy in % (Uromyces appendiculatus [11]): 65%

OC(Cc1ccc(F)cc1)(Cn1ccnc1)C1(Cl)CC1 (stereo not shown) [drawing 21, reference compound]
Efficacy in % (Septoria tritici [12]): 43%

CC(C)(C)C(O)(CCc1ccc(Cl)cc1)Cn1ccnc1 (stereo not shown) [reference compound]
Efficacy in % (Puccinia recondita [8]): 70%
